Laboratory results published in ChEMBL document CHEMBL4507261, “Data for DCP probe A-192621” (2021).

Key:
[1] = biological target: Prostaglandin G/H synthase 1 (Homo sapiens) (UniProt P23219); test: COX1(h) Eurofins-Cerep enzyme and uptake assay; conditions: Compound concentration 10.0 uM
[2] = biological target: Adenosine receptor A3 (Homo sapiens) (UniProt P0DMS8); test: A3 (h) Eurofins-Cerep binding assay; set-up: ligand concentration 0.15 nM; conditions: filed as agonist, Compound concentration 10.0 uM
[3] = biological target: Muscarinic acetylcholine receptor M3 (Homo sapiens) (UniProt P20309); test: M3 (h) Eurofins-Cerep binding assay; set-up: ligand concentration 0.2 nM; conditions: filed as antagonist, Compound concentration 10.0 uM
[4] = biological target: Substance-P receptor (Homo sapiens) (UniProt P25103); test: NK1 (h) Eurofins-Cerep binding assay; set-up: ligand concentration 0.05 nM; conditions: filed as agonist, Compound concentration 10.0 uM
[5] = biological target: Glutamate NMDA receptor (Rattus norvegicus) (UniProt P35439+Q00959+Q00960+Q00961+Q62645+Q8VHN2+Q9R1M7); test: PCP Eurofins-Cerep binding assay; format: protein-complex assay; set-up: ligand concentration 10 nM; conditions: filed as antagonist, Compound concentration 10.0 uM
[6] = biological target: 5-hydroxytryptamine receptor 2B (Homo sapiens) (UniProt P41595); test: 5-HT2B (h) Eurofins-Cerep binding assay; set-up: ligand concentration 0.2 nM; conditions: filed as agonist, Compound concentration 10.0 uM
[7] = biological target: Glucocorticoid receptor (Homo sapiens) (UniProt P04150); test: GR (h) Eurofins-Cerep binding assay; set-up: ligand concentration 1.5 nM; conditions: filed as agonist, Compound concentration 10.0 uM
[8] = biological target: Androgen receptor (Homo sapiens) (UniProt P10275); test: AR (h) Eurofins-Cerep binding assay; set-up: ligand concentration 1 nM; conditions: filed as agonist, Compound concentration 10.0 uM
[9] = biological target: GABA-A receptor; anion channel (Rattus norvegicus) (UniProt O09028+P15431+P18506+P18508+P19969+P20236+P23574+P23576+P28471+P28473+P30191+P62813+P63079+P63138+Q91ZM7+Q9ES14); test: Cl- channel (GABA-gated) Eurofins-Cerep binding assay; format: protein-complex assay; set-up: ligand concentration 3 nM; conditions: filed as antagonist, Compound concentration 10.0 uM
[10] = biological target: T1, Endothelin-1 receptor (Homo sapiens, UniProt P25101); test: Eurofins cellular functional assay - Antagonist (EDNRA)
T1 sequence (P25101 whole entry): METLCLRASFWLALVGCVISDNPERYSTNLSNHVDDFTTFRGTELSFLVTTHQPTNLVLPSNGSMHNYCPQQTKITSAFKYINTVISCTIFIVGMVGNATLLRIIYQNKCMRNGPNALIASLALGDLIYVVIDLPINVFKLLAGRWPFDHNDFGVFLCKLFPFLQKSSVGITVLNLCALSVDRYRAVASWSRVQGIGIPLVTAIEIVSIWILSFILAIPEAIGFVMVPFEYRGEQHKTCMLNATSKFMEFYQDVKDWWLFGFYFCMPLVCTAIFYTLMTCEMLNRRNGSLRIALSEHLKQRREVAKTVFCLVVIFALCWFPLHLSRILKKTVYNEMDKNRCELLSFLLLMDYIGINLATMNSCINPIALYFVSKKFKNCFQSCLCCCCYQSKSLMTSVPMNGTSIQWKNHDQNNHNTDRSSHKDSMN

[11] = system: Tyrosine-protein kinase ABL1 (Homo sapiens), P00519 [E255K]; conditions: Compound concentration 1000.0 nM
[12] = system: Tyrosine-protein kinase ABL1 (Homo sapiens), P00519 [T315I]; conditions: Compound concentration 1000.0 nM
[13] = biological target: Mitotic checkpoint serine/threonine-protein kinase BUB1 (Homo sapiens) (UniProt O43683); conditions: Compound concentration 1000.0 nM
[14] = biological target: Calcium/calmodulin-dependent protein kinase kinase 1 (Homo sapiens) (UniProt Q8N5S9); conditions: Compound concentration 1000.0 nM
[15] = biological target: Casein kinase I isoform alpha (Homo sapiens) (UniProt P48729); conditions: Compound concentration 1000.0 nM
[16] = biological target: Casein kinase I isoform epsilon (Homo sapiens) (UniProt P49674); conditions: Compound concentration 1000.0 nM
[17] = biological target: Death-associated protein kinase 1 (Homo sapiens) (UniProt P53355); conditions: Compound concentration 1000.0 nM
[18] = biological target: Dual specificity tyrosine-phosphorylation-regulated kinase 1B (Homo sapiens) (UniProt Q9Y463); conditions: Compound concentration 1000.0 nM
[19] = system: Epidermal growth factor receptor (Homo sapiens), P00533 [UNDEFINED MUTATION]; conditions: Compound concentration 1000.0 nM
[20] = biological target: Ephrin type-B receptor 6 (Homo sapiens) (UniProt O15197); conditions: Compound concentration 1000.0 nM
[21] = biological target: Fibroblast growth factor receptor 4 (Homo sapiens) (UniProt P22455); conditions: Compound concentration 1000.0 nM
[22] = biological target: Tyrosine-protein kinase Fyn (Homo sapiens) (UniProt P06241); conditions: Compound concentration 1000.0 nM
[23] = biological target: Serine/threonine-protein kinase LATS1 (Homo sapiens) (UniProt O95835); conditions: Compound concentration 1000.0 nM
[24] = biological target: Mitogen-activated protein kinase kinase kinase kinase 4 (Homo sapiens) (UniProt O95819); conditions: Compound concentration 1000.0 nM
[25] = biological target: Dual specificity mitogen-activated protein kinase kinase 5 (Homo sapiens) (UniProt Q13163); conditions: Compound concentration 1000.0 nM
[26] = biological target: Macrophage-stimulating protein receptor (Homo sapiens) (UniProt Q04912); conditions: Compound concentration 1000.0 nM
[27] = biological target: Muscle, skeletal receptor tyrosine-protein kinase (Homo sapiens) (UniProt O15146); conditions: Compound concentration 1000.0 nM
[28] = biological target: Serine/threonine-protein kinase PAK 6 (Homo sapiens) (UniProt Q9NQU5); conditions: Compound concentration 1000.0 nM
[29] = biological target: Phosphatidylinositol 4-kinase beta (Homo sapiens) (UniProt Q9UBF8); conditions: Compound concentration 1000.0 nM
[30] = biological target: cAMP-dependent protein kinase catalytic subunit alpha (Homo sapiens) (UniProt P17612); conditions: Compound concentration 1000.0 nM
[31] = biological target: Rho-associated protein kinase 2 (Homo sapiens) (UniProt O75116); conditions: Compound concentration 1000.0 nM
[32] = biological target: Serine/threonine-protein kinase Sgk2 (Homo sapiens) (UniProt Q9HBY8); conditions: Compound concentration 1000.0 nM
[33] = biological target: Serine/threonine-protein kinase SIK2 (Homo sapiens) (UniProt Q9H0K1); conditions: Compound concentration 1000.0 nM
[34] = biological target: Activated CDC42 kinase 1 (Homo sapiens) (UniProt Q07912); conditions: Compound concentration 1000.0 nM
[35] = biological target: Testis-specific serine/threonine-protein kinase 3 (Homo sapiens) (UniProt Q96PN8); conditions: Compound concentration 1000.0 nM
[36] = biological target: Phosphatidylinositol 3-kinase catalytic subunit type 3 (Homo sapiens) (UniProt Q8NEB9); conditions: Compound concentration 1000.0 nM

Chain of Substance-P receptor (Homo sapiens) (P25103 whole entry): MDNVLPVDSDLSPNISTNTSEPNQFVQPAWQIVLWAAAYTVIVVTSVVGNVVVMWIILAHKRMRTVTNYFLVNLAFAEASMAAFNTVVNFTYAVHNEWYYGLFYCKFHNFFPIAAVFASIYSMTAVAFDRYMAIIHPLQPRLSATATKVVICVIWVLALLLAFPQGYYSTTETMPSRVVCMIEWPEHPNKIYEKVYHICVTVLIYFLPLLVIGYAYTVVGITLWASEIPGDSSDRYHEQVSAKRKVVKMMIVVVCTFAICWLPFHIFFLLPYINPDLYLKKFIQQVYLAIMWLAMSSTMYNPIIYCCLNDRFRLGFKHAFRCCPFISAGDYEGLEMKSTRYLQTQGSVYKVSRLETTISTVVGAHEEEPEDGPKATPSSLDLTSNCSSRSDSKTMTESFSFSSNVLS
Chain of Mitogen-activated protein kinase kinase kinase kinase 4 (Homo sapiens) (O95819 2-1239 limits assumed): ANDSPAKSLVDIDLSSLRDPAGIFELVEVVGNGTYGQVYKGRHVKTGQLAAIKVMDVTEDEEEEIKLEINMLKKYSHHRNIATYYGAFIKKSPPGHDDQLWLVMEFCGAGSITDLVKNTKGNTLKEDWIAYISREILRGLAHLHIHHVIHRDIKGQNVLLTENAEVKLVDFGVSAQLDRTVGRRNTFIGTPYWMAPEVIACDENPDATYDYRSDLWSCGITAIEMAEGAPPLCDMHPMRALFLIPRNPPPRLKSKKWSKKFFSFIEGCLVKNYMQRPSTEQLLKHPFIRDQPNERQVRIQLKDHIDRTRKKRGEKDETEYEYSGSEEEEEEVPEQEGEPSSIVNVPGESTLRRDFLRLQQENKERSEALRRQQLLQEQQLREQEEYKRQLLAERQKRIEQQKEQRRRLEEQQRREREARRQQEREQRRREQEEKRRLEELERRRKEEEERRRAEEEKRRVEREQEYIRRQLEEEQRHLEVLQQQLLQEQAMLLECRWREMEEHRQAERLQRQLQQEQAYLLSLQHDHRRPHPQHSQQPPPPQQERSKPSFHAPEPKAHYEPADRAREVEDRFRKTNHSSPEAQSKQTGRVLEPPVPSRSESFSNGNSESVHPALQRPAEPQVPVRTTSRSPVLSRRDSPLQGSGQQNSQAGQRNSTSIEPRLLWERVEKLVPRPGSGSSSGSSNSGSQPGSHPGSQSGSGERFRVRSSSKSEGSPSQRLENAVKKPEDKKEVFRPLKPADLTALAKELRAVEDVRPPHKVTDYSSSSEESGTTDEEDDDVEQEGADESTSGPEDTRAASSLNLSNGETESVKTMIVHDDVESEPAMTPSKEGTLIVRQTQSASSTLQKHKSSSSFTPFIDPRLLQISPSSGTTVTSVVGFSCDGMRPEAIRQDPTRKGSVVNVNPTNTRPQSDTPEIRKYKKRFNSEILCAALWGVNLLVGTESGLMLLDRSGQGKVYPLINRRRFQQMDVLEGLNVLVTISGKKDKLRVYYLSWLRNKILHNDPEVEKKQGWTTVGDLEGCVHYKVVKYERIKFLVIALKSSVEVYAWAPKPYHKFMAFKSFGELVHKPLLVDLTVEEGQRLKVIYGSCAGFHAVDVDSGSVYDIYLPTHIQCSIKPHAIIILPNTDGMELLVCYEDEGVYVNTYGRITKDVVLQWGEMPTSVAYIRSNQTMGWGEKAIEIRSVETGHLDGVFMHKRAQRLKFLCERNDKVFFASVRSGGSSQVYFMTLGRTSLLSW
Chain of Prostaglandin G/H synthase 1 (Homo sapiens) (P23219 whole entry): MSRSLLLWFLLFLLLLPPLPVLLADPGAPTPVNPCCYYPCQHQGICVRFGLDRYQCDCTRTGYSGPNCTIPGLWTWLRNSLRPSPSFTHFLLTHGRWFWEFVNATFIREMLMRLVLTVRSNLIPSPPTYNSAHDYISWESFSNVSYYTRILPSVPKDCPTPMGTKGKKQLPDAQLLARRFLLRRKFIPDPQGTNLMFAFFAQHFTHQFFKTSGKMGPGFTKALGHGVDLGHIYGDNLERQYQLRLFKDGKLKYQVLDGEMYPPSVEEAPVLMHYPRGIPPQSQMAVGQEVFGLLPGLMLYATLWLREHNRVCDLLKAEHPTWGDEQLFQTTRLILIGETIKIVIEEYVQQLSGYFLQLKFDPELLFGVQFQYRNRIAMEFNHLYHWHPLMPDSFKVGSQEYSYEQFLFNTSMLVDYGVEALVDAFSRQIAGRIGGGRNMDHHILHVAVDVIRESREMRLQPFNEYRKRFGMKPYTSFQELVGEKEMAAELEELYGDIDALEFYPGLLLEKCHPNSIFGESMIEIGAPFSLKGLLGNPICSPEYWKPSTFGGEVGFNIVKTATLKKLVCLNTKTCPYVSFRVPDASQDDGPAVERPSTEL
Chain of Activated CDC42 kinase 1 (Homo sapiens) (Q07912 whole entry, looked up): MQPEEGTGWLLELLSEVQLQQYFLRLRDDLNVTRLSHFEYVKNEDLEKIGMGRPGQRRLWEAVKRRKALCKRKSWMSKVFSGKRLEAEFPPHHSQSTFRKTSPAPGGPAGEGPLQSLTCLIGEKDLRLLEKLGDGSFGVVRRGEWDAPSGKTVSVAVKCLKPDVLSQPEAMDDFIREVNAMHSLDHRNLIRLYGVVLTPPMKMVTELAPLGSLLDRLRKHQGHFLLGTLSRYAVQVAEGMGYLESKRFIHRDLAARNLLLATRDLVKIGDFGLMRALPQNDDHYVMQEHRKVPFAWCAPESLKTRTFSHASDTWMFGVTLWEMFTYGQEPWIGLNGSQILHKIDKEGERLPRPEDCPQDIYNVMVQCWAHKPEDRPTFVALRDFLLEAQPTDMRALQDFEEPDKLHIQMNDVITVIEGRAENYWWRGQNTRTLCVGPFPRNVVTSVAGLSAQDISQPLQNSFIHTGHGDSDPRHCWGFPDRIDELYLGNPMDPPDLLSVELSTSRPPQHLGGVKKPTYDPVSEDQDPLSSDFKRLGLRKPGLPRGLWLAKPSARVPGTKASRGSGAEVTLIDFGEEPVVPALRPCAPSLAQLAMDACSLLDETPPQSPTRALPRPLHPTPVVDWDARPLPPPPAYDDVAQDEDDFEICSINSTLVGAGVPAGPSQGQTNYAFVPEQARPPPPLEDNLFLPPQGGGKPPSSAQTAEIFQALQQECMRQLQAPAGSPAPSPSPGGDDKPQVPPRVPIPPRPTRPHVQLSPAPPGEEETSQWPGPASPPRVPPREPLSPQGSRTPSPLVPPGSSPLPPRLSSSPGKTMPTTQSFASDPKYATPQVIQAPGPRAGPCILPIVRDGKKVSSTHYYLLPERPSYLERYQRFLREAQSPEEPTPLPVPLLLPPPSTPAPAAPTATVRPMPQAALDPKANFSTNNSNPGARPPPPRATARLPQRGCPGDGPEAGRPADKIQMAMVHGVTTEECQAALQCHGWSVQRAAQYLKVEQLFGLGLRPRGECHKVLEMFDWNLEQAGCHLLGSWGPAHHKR
Chain of Muscle, skeletal receptor tyrosine-protein kinase (Homo sapiens) (O15146 whole entry): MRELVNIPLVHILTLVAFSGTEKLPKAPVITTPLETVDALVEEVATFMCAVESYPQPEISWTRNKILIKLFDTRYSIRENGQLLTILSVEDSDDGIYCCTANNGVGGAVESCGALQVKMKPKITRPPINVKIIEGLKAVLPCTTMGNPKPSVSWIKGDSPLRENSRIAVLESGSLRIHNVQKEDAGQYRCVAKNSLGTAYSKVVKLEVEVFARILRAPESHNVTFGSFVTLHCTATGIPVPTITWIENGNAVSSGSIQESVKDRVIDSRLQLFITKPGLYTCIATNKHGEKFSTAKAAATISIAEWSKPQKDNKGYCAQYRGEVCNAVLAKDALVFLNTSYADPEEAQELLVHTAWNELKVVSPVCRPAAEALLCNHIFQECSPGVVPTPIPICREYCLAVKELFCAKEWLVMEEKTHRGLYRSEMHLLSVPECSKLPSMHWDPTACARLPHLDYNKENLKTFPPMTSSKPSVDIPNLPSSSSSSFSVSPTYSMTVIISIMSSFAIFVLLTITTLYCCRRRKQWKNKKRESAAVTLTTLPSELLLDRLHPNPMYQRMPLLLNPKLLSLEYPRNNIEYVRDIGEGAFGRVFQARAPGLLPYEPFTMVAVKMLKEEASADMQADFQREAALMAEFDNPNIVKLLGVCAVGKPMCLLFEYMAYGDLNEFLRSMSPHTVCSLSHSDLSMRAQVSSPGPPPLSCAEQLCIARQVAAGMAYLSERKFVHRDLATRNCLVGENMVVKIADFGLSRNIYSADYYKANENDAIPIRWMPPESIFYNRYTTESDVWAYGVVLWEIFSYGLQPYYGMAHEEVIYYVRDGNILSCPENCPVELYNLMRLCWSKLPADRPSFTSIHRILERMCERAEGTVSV
Chain of Tyrosine-protein kinase Fyn (Homo sapiens) (P06241 2-537 limits assumed): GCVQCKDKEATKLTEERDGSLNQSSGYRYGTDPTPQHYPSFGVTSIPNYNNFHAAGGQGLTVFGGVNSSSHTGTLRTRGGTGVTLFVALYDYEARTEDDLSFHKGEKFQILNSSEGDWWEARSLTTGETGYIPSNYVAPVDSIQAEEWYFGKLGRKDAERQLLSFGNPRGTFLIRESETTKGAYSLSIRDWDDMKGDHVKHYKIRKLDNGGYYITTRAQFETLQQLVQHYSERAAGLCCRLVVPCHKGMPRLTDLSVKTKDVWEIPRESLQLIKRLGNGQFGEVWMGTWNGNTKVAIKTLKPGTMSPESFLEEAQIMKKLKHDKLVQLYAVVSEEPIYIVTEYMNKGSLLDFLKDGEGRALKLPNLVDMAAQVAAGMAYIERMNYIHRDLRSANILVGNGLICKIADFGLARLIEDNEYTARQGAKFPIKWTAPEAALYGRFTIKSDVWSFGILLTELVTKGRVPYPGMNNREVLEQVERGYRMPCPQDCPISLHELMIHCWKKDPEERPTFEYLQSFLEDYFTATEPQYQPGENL
Chain of Testis-specific serine/threonine-protein kinase 3 (Homo sapiens) (Q96PN8 whole entry): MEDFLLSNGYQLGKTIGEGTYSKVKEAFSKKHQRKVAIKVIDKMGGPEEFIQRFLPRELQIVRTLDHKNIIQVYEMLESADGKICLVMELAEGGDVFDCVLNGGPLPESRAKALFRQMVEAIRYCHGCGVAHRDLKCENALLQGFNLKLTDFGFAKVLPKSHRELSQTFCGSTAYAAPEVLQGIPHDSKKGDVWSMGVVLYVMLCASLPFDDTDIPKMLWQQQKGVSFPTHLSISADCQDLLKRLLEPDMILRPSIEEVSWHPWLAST

CCCOc1ccc([C@H]2[C@H](C(=O)O)[C@@H](c3ccc4c(c3)OCO4)CN2CC(=O)Nc2c(CC)cccc2CC)cc1 [A-192621]
-1.5%: % Inhibition of Control Specific Binding (Mean n=2) [5]
7%: % Inhibition of Control Specific Binding (Mean n=2) [7]
-11.3%: % Inhibition of Control Specific Binding (Mean n=2) [3]
13.2%: % Inhibition of Control Values (Mean n=2) [1]
inactive: residual activity [11] 70% | residual activity [12] 77% | residual activity [13] 98% | residual activity [14] 86% | residual activity [15] 72% | residual activity [16] 100% | residual activity [17] 90% | residual activity [18] 100% | residual activity [19] 100% | residual activity [20] 65% | residual activity [21] 87% | residual activity [22] 100% | residual activity [23] 77% | residual activity [24] 90% | residual activity [25] 63% | residual activity [26] 86% | residual activity [27] 82% | residual activity [28] 68% | residual activity [29] 75% | residual activity [30] 100% | residual activity [31] 69% | residual activity [32] 54% | residual activity [33] 89% | residual activity [34] 100% | residual activity [35] 58% | residual activity [36] 78%
47.4%: % Inhibition of Control Specific Binding (Mean n=2) [2]
36.7%: % Inhibition of Control Specific Binding (Mean n=2) [4]
-1.9%: % Inhibition of Control Specific Binding (Mean n=2) [6]
77.4%: % Inhibition of Control Specific Binding (Mean n=2) [9]
-11.6%: % Inhibition of Control Specific Binding (Mean n=2) [8]
3.6 µM (not active): IC50 [10]

CCCOc1ccc([C@@H]2[C@@H](C(=O)O)[C@H](c3ccc4c(c3)OCO4)CN2CC(=O)Nc2c(CC)cccc2CC)cc1 [A-1806262]
2.3%: % Inhibition of Control Values (Mean n=2) [1]
32.2%: % Inhibition of Control Specific Binding (Mean n=2) [4]
4.1%: % Inhibition of Control Specific Binding (Mean n=2) [7]
60.8%: % Inhibition of Control Specific Binding (Mean n=2) [9]
-0.6%: % Inhibition of Control Specific Binding (Mean n=2) [3]
-11.6%: % Inhibition of Control Specific Binding (Mean n=2) [8]
-16.5%: % Inhibition of Control Specific Binding (Mean n=2) [6]
1.6 µM (not active): IC50 [10]
inactive: residual activity [11] 82% | residual activity [12] 82% | residual activity [13] 92% | residual activity [14] 81% | residual activity [15] 73% | residual activity [16] 98% | residual activity [17] 83% | residual activity [18] 99% | residual activity [19] 78% | residual activity [20] 77% | residual activity [21] 93% | residual activity [22] 87% | residual activity [23] 57% | residual activity [24] 97% | residual activity [25] 100% | residual activity [26] 91% | residual activity [27] 97% | residual activity [28] 83% | residual activity [29] 100% | residual activity [30] 100% | residual activity [31] 84% | residual activity [32] 69% | residual activity [33] 96% | residual activity [34] 90% | residual activity [35] 81% | residual activity [36] 88%
37.6%: % Inhibition of Control Specific Binding (Mean n=2) [2]
0.2%: % Inhibition of Control Specific Binding (Mean n=2) [5]
